Test systems include IGROV-1; OVCAR-5; HCC 2998; K562; SR; NCI-H522; NCI-H23; U-251; NCI-H460; CAKI-1; SNB-19; SF-295; TK-10; MOLT-4; NCI-H226; OVCAR-8; OVCAR-3; 786-0; HCT-15; SNB-75.
What all share (experiment): DTP human tumour cell line panel, 48 h

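1) Cells in 96-well plates. 2) Compound, 48 h, 5 concentrations. 3) Linear interpolation between surrounding doses. 4) Unreached endpoint = highest concentration. GI50 marks 50% less growth.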 Active and inactive are the calls of the source. Cut-off read from the data, not from the text of the source: active = GI50 up to about 1.1 µM and inactive = higher. Where only a bound is given, the exact number is not on record here.

As a reminder, the GI50 is the concentration giving 50% growth inhibition. Consider `CC1=NN(c2nc(N)nc(CSCc3nc(N)nc(N(C)C)n3)n2)C(C)(C)C1`, for which the GI50 is > 100 µM (inactive) in the test with IGROV-1; > 100 µM (inactive) with OVCAR-5; > 100 µM (inactive) in the test on HCC 2998; 18.2 µM (inactive) with K562; > 100 µM (inactive) in the test on SR; > 100 µM (inactive) with NCI-H522. In addition, the GI50 in the test with NCI-H23, in the test on U-251, in the test with NCI-H460, with CAKI-1, with SNB-19 and with SF-295 was > 100 µM (inactive) throughout. Besides, the GI50 with TK-10, with MOLT-4, in the test on NCI-H226, in the test on OVCAR-8, with OVCAR-3 and with 786-0 was > 100 µM (inactive) throughout. Further, the concentration for 50% growth inhibition (GI50) is above 100 µM in the test with HCT-15 and 60.5 µM (inactive) in the test with SNB-75.
Consider `COC(=O)c1c(C)[nH]c2c1cc(O)c1nc(C)c(C)nc12`, for which the GI50 is > 100 µM (inactive) in the test on IGROV-1; 76.7 µM (inactive) in the test with OVCAR-5; > 100 µM (inactive) in the test with HCC 2998; > 100 µM (inactive) in the test on K562; > 100 µM (inactive) in the test on SR; 74.8 µM (inactive) in the test with NCI-H522. The GI50 in the test with NCI-H23 was 49.4 µM (inactive); with U-251, 60.3 µM (inactive); with NCI-H460, > 100 µM (inactive); in the test on CAKI-1 it was > 100 µM (inactive); in the test on SNB-19, > 100 µM (inactive); with SF-295 it was 23.6 µM (inactive). In addition, the GI50 was 29.2 µM (inactive) in the test with TK-10; > 100 µM (inactive) in the test on MOLT-4; > 100 µM (inactive) with NCI-H226; > 100 µM (inactive) with OVCAR-8; > 100 µM (inactive) in the test with OVCAR-3; > 100 µM (inactive) in the test on 786-0. Besides, the concentration for 50% growth inhibition (GI50) in the test on HCT-15 was above 100 µM; in the test on SNB-75, 19.5 µM (inactive).
`COc1ccc(/C=N/C23CC4CC(CC(C4)C2)C3)cc1`: the GI50 in the test on IGROV-1, in the test on OVCAR-5, with HCC 2998, with K562, in the test on SR and with NCI-H522 was > 100 µM (inactive) in each case. The GI50 in the test on NCI-H23, in the test with U-251, with NCI-H460, in the test on CAKI-1, in the test with SNB-19 and in the test with SF-295 was > 100 µM (inactive) in each case. Further, the GI50 in the test on TK-10, with MOLT-4, in the test on NCI-H226, in the test with OVCAR-8, in the test with OVCAR-3 and with 786-0 was > 100 µM (inactive) throughout. Further, the GI50 in the test on HCT-15 was above 100 µM; in the test with SNB-75 it was > 100 µM (inactive).
As to `CC(C)(C)OC(=O)NCC(=O)N(CCc1ccc(Cl)c(Cl)c1)CCN1CCCC1`, the GI50 was 15.8 µM (inactive) in the test on IGROV-1; 18.9 µM (inactive) in the test on OVCAR-5; 5.14 µM (inactive) in the test on HCC 2998; 8.11 µM (inactive) with K562; 14.5 µM (inactive) with SR; 14.5 µM (inactive) in the test on NCI-H522. Besides, the GI50 in the test on NCI-H23 was 17.1 µM (inactive); in the test with U-251 it was 15.2 µM (inactive); in the test with NCI-H460, 15.8 µM (inactive); with CAKI-1, 18.4 µM (inactive); in the test with SNB-19, 17.8 µM (inactive); in the test on SF-295, 17.3 µM (inactive). Also, the GI50 in the test on TK-10 was 17.1 µM (inactive); in the test on MOLT-4 it was 8.41 µM (inactive); with NCI-H226 it was 15 µM (inactive); with OVCAR-8, 18 µM (inactive); in the test with OVCAR-3 it was 16.7 µM (inactive); with 786-0, 14 µM (inactive). Also, the GI50 with HCT-15 is 17.7 µM; in the test on SNB-75, 17.5 µM (inactive).
Consider `CCCCCCCCCCCCCCCC(=O)OCC1OC(OC)C2NP(=O)(N(CCCl)CCCl)OC1C2O` (stereo not given), for which the GI50 in the test with IGROV-1 is 19 µM (inactive); in the test on OVCAR-5, 20.8 µM (inactive); in the test with HCC 2998, 2.54 µM (inactive); in the test on K562, 2.36 µM (inactive); with SR it was 0.0177 µM (active); with NCI-H522 it was 0.916 µM (active). In addition, the GI50 was 1.21 µM (inactive) in the test on NCI-H23; 1.32 µM (inactive) in the test on U-251; 0.54 µM (active) with NCI-H460; 0.752 µM (active) with CAKI-1; 2.61 µM (inactive) in the test with SNB-19; 4.48 µM (inactive) with SF-295. In addition, the GI50 in the test with TK-10 is 10.9 µM (inactive); in the test on MOLT-4, 0.0288 µM (active); in the test on NCI-H226, 10.9 µM (inactive); in the test with OVCAR-8, 2.51 µM (inactive); in the test on OVCAR-3 it was 3.16 µM (inactive); in the test with 786-0 it was 0.44 µM (active). Further, the GI50 in the test on HCT-15 was 3.14 µM; in the test on SNB-75, 2.91 µM (inactive).
On to `CCOC(=O)NN1C(=O)C(=P(c2ccccc2)(c2ccccc2)c2ccccc2)C(C(=O)OC)=C1C`, for which the GI50 with IGROV-1, in the test with OVCAR-5, in the test on HCC 2998, in the test on K562, in the test on SR and in the test on NCI-H522 was > 100 µM (inactive) in each case. For the same compound, the GI50 in the test on NCI-H23, in the test on U-251, in the test on NCI-H460, in the test on CAKI-1, with SNB-19 and in the test with SF-295 was > 100 µM (inactive) throughout. The GI50 in the test with TK-10, with MOLT-4, in the test with NCI-H226, in the test with OVCAR-8, in the test with OVCAR-3 and in the test with 786-0 was > 100 µM (inactive) in each case. The 50% growth inhibitory concentration (GI50) in the test on HCT-15 was above 100 µM; in the test with SNB-75 it was > 100 µM (inactive).
Take `CC(=O)O[C@H]1[C@@H](N2CCOCC2)C[C@H]2[C@@H]3CC=C4C[C@@H](N5CCCC5)CC[C@]4(C)[C@H]3CC[C@@]21C`: the GI50 is > 100 µM (inactive) with IGROV-1; > 100 µM (inactive) with OVCAR-5; 48.8 µM (inactive) in the test with HCC 2998; 24 µM (inactive) in the test with K562; 49.7 µM (inactive) in the test with SR; > 100 µM (inactive) in the test on NCI-H522. The GI50 with NCI-H23, with U-251, in the test on NCI-H460, with CAKI-1, with SNB-19 and in the test on SF-295 was > 100 µM (inactive) each time. Moreover, the GI50 with TK-10, with MOLT-4, in the test on NCI-H226, in the test with OVCAR-8, with OVCAR-3 and in the test with 786-0 was > 100 µM (inactive) throughout. For the same compound, the 50% growth inhibitory concentration (GI50) was above 100 µM with HCT-15 and > 100 µM (inactive) with SNB-75.
Take `Cc1cc2nc3c(N)nn(CCN(C)C)c3nc2cc1C`: the GI50 is 27 µM (inactive) in the test on IGROV-1; 52 µM (inactive) with OVCAR-5; 51.6 µM (inactive) in the test with HCC 2998; 83.4 µM (inactive) in the test on K562; > 100 µM (inactive) in the test with SR; 40.1 µM (inactive) in the test with NCI-H522. Further, the GI50 in the test on NCI-H23 was 38.2 µM (inactive); in the test on U-251 it was 33.1 µM (inactive); in the test on NCI-H460 it was 32.8 µM (inactive); in the test on CAKI-1 it was 39.3 µM (inactive); with SNB-19, 40.7 µM (inactive); with SF-295 it was 78.7 µM (inactive). In addition, the GI50 in the test with TK-10 is 41.4 µM (inactive); in the test with MOLT-4 it was 41.8 µM (inactive); in the test on NCI-H226, 11.2 µM (inactive); in the test with OVCAR-8 it was 33.8 µM (inactive); with OVCAR-3, 55 µM (inactive); in the test with 786-0, 40.1 µM (inactive). Besides, the GI50 in the test on HCT-15 is 36.4 µM; in the test on SNB-75, 27.4 µM (inactive).
For `C/C(CC(=O)Nc1ccc(C)c(C)c1)=N\N(c1ccccc1)c1ccccc1`, the GI50 was 64.4 µM (inactive) with IGROV-1; > 100 µM (inactive) in the test on OVCAR-5; > 100 µM (inactive) with HCC 2998; 26.2 µM (inactive) in the test on K562; 22.4 µM (inactive) with SR; 15.2 µM (inactive) in the test with NCI-H522. Besides, the GI50 in the test on NCI-H23 is > 100 µM (inactive); with U-251, 15.2 µM (inactive); in the test with NCI-H460 it was > 100 µM (inactive); in the test with CAKI-1, 80.7 µM (inactive); with SNB-19 it was > 100 µM (inactive); in the test with SF-295, > 100 µM (inactive). For the same compound, the GI50 is > 100 µM (inactive) with TK-10; 62.5 µM (inactive) in the test on MOLT-4; > 100 µM (inactive) with NCI-H226; > 100 µM (inactive) in the test with OVCAR-8; > 100 µM (inactive) in the test on OVCAR-3; 99.1 µM (inactive) with 786-0. The values for the concentration for 50% growth inhibition (GI50) with HCT-15 and in the test with SNB-75 were 49 µM and 65.9 µM (inactive), respectively.
On to `Cn1c(O)c(C2=Nc3ccccc3C2=O)c2ccccc21`, for which the GI50 in the test with IGROV-1, in the test with OVCAR-5, with HCC 2998, with K562, with SR and with NCI-H522 was > 100 µM (inactive) each time. The GI50 with NCI-H23, with U-251, with NCI-H460, in the test with CAKI-1, in the test with SNB-19 and with SF-295 was > 100 µM (inactive) throughout. The GI50 in the test on TK-10, with MOLT-4, in the test with NCI-H226, with OVCAR-8, in the test with OVCAR-3 and in the test with 786-0 was > 100 µM (inactive) each time. Besides, the values for the GI50 in the test on HCT-15 and in the test on SNB-75 were above 100 µM and > 100 µM (inactive), respectively.

For the origin of these results see ChEMBL document CHEMBL1201862, “PubChem BioAssay data set” (2004).
